Test results published in patent US10946019B2, “Nurr1:RXR activating compounds for simultaneous treatment of symptoms and pathology of Parkinson's disease” (priority 2015, dated 2021).

Columns and labels:
TH = test: Expression of DA biosynthesis genes in SHSY-5Y by qPCR; format: cell-based, human; conditions: 12.5 μM, vs vehicle
Excerpt: FIGS. 72A-72R show the ability of compound 3 to induce the expression of genes involved in dopamine biosynthesis as well as the neuroprotective effects of compound 3 in cell lines and patient iPCs-derived dopaminergic neurons. […] FIGS. 72F, 72G, 72H, and 72I show representative confocal microscopy images of the compound 3-treated primary rat cortical neurons. […] FIG. 72M-72R show the effects of compound 3 on PD patient iPS cell-derived dopaminergic neurons with the LRRK2-G2019S mutation or corrected mutation (GC). Compound 3 treatment rescues neurite length (M, expressed in […]), number (N) and branching (O) phenotypes. Representative images show staining with TuJ, TH and DAPI (FIGS. 72P, 72Q, and 72R).
Nurr1 regulates the transcription of DA biosynthesis genes (Kim et al. J. Neurochem. 85:622-634, 2003 and Gil et al. J Neurochem 101:142-150, 2007); however, whether this process is mediated by Nurr1:RXRα heterodimers is unknown.

Nurr1:RXRγ heterodimer = Nurr1:RXRγ heterodimer (Homo sapiens (Human), UniProt P48443); test: Nurr1:RXRγ luciferase reporter transactivation assay; format: cell-based; conditions: SHSY-5Y
Sequence of Nurr1:RXRγ heterodimer (P48443 whole entry, looked up): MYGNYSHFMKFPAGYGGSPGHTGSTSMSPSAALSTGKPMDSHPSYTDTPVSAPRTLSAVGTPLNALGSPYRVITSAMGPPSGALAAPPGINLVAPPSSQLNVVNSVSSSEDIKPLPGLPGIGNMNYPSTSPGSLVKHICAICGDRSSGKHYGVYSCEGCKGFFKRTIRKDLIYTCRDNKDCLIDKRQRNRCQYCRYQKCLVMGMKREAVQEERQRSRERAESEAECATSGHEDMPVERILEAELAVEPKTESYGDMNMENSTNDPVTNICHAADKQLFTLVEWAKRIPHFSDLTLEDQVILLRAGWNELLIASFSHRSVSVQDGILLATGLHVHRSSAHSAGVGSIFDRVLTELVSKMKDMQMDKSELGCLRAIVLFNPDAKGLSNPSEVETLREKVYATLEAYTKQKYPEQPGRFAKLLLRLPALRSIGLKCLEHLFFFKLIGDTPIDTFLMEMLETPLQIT
Sequence of Nurr1:RXRγ heterodimer (P43354 whole entry partner, looked up): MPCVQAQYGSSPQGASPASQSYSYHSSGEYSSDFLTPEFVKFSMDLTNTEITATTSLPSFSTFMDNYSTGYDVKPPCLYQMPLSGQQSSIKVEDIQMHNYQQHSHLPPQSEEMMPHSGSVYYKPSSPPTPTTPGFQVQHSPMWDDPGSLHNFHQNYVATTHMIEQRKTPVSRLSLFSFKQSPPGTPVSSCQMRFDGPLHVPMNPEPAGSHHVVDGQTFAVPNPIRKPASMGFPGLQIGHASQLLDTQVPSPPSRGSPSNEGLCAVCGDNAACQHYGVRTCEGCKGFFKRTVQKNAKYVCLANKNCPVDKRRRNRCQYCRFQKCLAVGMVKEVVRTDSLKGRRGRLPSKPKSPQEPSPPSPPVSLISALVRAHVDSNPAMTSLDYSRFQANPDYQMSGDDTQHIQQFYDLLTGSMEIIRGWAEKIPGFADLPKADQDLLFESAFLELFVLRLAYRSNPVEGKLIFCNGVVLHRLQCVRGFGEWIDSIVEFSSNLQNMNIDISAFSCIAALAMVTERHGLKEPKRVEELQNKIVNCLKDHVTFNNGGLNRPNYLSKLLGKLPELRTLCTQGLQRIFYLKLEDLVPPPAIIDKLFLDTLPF
Experimental: Synthesized compounds of the invention and their analogs, shown in Table 1, below, were evaluated for activity in cellular assays. The in vitro transactivation assay determined the capacity of the compounds of the invention to activate the Nurr1:RXR heterodimers. Naive SHSY-5Y cells were transiently co-transfected, using Lipofectamine 2000 (Invitrogen), with a plasmid expressing the human receptor Nurr1, a plasmid expressing the RXR human receptor (RXRα or RXRγ receptor) and a reporter plasmid DR5-TK-Luc. After 24 hours, the culture medium was changed. The test compounds were added (final concentration between 0.5, 2.5 and 12.5 μM) in the culture medium. After incubation overnight, the expression of luciferase was measured (FIG. 1A). Positive control cells were treated with XCT0135908 (1 μM; WO 2005/047268) which induces activation of the Nurr1:RXR heterodimer and results in maximal expression of luciferase. The transcription-activating activities of various compounds of the invention are shown in FIG. 1B, as well as in Table 1, below. […] Furthermore, compound 3 is selective for the Nurr1:RXRα heterodimer over the Nurr1:RXRγ heterodimer (FIG. 1D).

C=CCc1c(N(C)c2ccc(C(=O)O)cc2)nc(-c2ccccc2)nc1C(F)(F)F [Example 3, 4-((5-allyl-2-phenyl-6-(trifluoromethyl)pyrimidin-4-yl)(methyl)amino)benzoic acid]
increase of TH expression (TH): about 90% | activation of Nurr1:RXRγ heterodimers (Nurr1:RXRγ heterodimer): did not activate
